{"source": "patent US20210116454A1", "about": "“METHODS FOR TREATING A HEMATOLOGICAL CANCER AND THE USE OF COMPANION BIOMARKERS FOR 2-(2,6-DIOXOPIPERIDIN-3-YL)-4-((2-FLUORO-4-((3-MORPHOLINOAZETIDIN-1-YL)METHYL)BENZYL)AMINO)ISOINDOLINE-1,3-DIONE” (CELGENE CORPORATION, priority 2019, published 2021)", "assay_in_all_cases": "5-day viable cell number and apoptosis (7-AAD exclusion/Annexin V flow cytometry)", "type_in_all_cases": "cell-based", "key": {"U2932": {"system": "U2932", "conditions": "U2932 cells, 5 days", "in_short": "(§1)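 Steps: cells treated with rising compound concentrations; incubated five days; viable cells enumerated; apoptotic fraction measured by flow cytometry (7-AAD exclusion, Annexin V).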"}, "OCI-LY-3": {"system": "OCI-LY-3", "conditions": "OCI-LY-3 cells, 5 days", "in_short": "as §1"}, "OCI-LY-7": {"system": "OCI-LY-7", "in_short": "as §1"}, "Toledo": {"system": "Toledo", "conditions": "Toledo cells, 5 days", "in_short": "as §1"}, "TMD8": {"system": "TMD8", "conditions": "TMD8 cells, 5 days", "in_short": "as §1"}, "SU-DHL-4": {"system": "SU-DHL-4", "in_short": "as §1"}, "Pfeiffer": {"system": "Pfeiffer", "in_short": "as §1"}, "U2940": {"system": "U2940", "conditions": "U2940 cells, 5 days", "in_short": "as §1"}, "HT": {"system": "HT", "in_short": "as §1"}, "[1]": {"conditions": "Homo sapiens, OCI-Ly7, 120 h, OCI-LY-7 cells, 5 days"}, "[2]": {"conditions": "Homo sapiens, 120 h, read-out: % Viable Cells IC50"}, "[3]": {"conditions": "Homo sapiens, 120 h, SU-DHL-4 cells, 5 days"}, "[4]": {"conditions": "Homo sapiens, 120 h, Pfeiffer cells, 5 days"}, "[5]": {"conditions": "Homo sapiens, 120 h, HT cells, 5 days"}}, "note": "Like-named read-outs stand apart in the source and are kept apart here."}
{"compound": "O=C1CC[C@H](N2C(=O)c3cccc(NCc4ccc(CN5CC(N6CCOCC6)C5)cc4F)c3C2=O)C(=O)N1", "note": "[Compound 1, (S)-2-(2,6-dioxopiperidin-3-yl)-4-((2-fluoro-4-((3-morpholinoazetidin-1-yl)methyl)benzyl)amino)isoindoline-1,3-dione]", "values": [{"measurement": "% Viable Cells Sensitivity", "setting": "U2932", "value": "Intermediate (intermediate sensitivity with 15% to 55% cell viability)"}, {"measurement": "Apoptosis AUC", "setting": "U2932", "value": 280.5}, {"measurement": "Apoptosis Sensitivity", "setting": "U2932", "value": "Intermediate"}, {"measurement": "EC50", "setting": "OCI-LY-3; Homo sapiens, OCI-Ly3, 120 h", "value": 0.46, "unit": "nM"}, {"measurement": "Emax", "setting": "OCI-LY-3; Homo sapiens, OCI-Ly3, 120 h", "value": 0.753, "unit": "%"}, {"measurement": "% Viable Cells AUC", "setting": "OCI-LY-3", "value": 986.1}, {"measurement": "% Viable Cells Emax", "setting": "OCI-LY-3", "value": 84.33, "unit": "%"}, {"measurement": "% Viable Cells Sensitivity", "setting": "OCI-LY-3", "value": "Limited"}, {"measurement": "Apoptosis AUC", "setting": "OCI-LY-3", "value": 7.009}, {"measurement": "Apoptosis Sensitivity", "setting": "OCI-LY-3", "value": "Limited"}, {"measurement": "EC50", "setting": "OCI-LY-7; [1]", "value": 12.8, "unit": "nM"}, {"measurement": "Emax", "setting": "OCI-LY-7; [1]", "value": 68.8, "unit": "%"}, {"measurement": "IC50", "setting": "OCI-LY-7; Homo sapiens, OCI-Ly7, 120 h, OCI-LY-7 cells, 5 days, read-out: % Viable Cells IC50", "value": 3.6, "unit": "nM"}, {"measurement": "IC50", "setting": "OCI-LY-7; Homo sapiens, OCI-Ly7, OCI-LY-7 cells (Table 3), read-out: IC50", "value": 62000, "unit": "nM"}, {"measurement": "% Viable Cells AUC", "setting": "OCI-LY-7; OCI-LY-7 cells, 5 days", "value": 61.98}, {"measurement": "% Viable Cells Emax", "setting": "OCI-LY-7; OCI-LY-7 cells, 5 days", "value": 1.657, "unit": "%"}, {"measurement": "% Viable Cells Sensitivity", "setting": "OCI-LY-7; OCI-LY-7 cells, 5 days", "value": "High (highly sensitive to Compound 1 with less than 6% viable cells remaining (Emax) after treatment)"}, {"measurement": "Apoptosis AUC", "setting": "OCI-LY-7; OCI-LY-7 cells, 5 days", "value": 673.2}, {"measurement": "Apoptosis Sensitivity", "setting": "OCI-LY-7; OCI-LY-7 cells, 5 days", "value": "High"}, {"measurement": "EC50", "setting": "Toledo; Homo sapiens, 120 h", "value": 500, "unit": "nM"}, {"measurement": "Emax", "setting": "Toledo; Homo sapiens, 120 h", "value": 14, "unit": "%"}, {"measurement": "IC50", "setting": "Toledo; [2]", "value": 500, "unit": "nM"}, {"measurement": "% Viable Cells AUC", "setting": "Toledo", "value": 507}, {"measurement": "% Viable Cells Emax", "setting": "Toledo", "value": 52.68, "unit": "%"}, {"measurement": "% Viable Cells Sensitivity", "setting": "Toledo", "value": "Intermediate (intermediate sensitivity with 15% to 55% cell viability)"}, {"measurement": "Apoptosis AUC", "setting": "Toledo", "value": 114.8}, {"measurement": "Apoptosis Sensitivity", "setting": "Toledo", "value": "Intermediate"}, {"measurement": "EC50", "setting": "TMD8; Homo sapiens, 120 h", "value": 4.44, "unit": "nM"}, {"measurement": "Emax", "setting": "TMD8; Homo sapiens, 120 h", "value": 83.2, "unit": "%"}, {"measurement": "IC50", "setting": "TMD8; [2]", "value": 3, "unit": "nM"}, {"measurement": "% Viable Cells AUC", "setting": "TMD8", "value": 3.911}, {"measurement": "% Viable Cells Emax", "setting": "TMD8", "value": 1.365, "unit": "%"}, {"measurement": "% Viable Cells Sensitivity", "setting": "TMD8", "value": "High (highly sensitive to Compound 1 with less than 6% viable cells remaining (Emax) after treatment)"}, {"measurement": "Apoptosis AUC", "setting": "TMD8", "value": 826.8}, {"measurement": "Apoptosis Sensitivity", "setting": "TMD8", "value": "High"}, {"measurement": "EC50", "setting": "SU-DHL-4; [3]", "value": 452, "unit": "nM"}, {"measurement": "Emax", "setting": "SU-DHL-4; [3]", "value": 18.9, "unit": "%"}, {"measurement": "IC50", "setting": "SU-DHL-4; Homo sapiens, 120 h, SU-DHL-4 cells, 5 days, read-out: % Viable Cells IC50", "value": 500, "unit": "nM"}, {"measurement": "IC50", "setting": "SU-DHL-4; Homo sapiens, SU-DHL-4 cells (Table 3), read-out: IC50", "value": 457000, "unit": "nM"}, {"measurement": "% Viable Cells AUC", "setting": "SU-DHL-4; SU-DHL-4 cells, 5 days", "value": 457.4}, {"measurement": "% Viable Cells Emax", "setting": "SU-DHL-4; SU-DHL-4 cells, 5 days", "value": 41.79, "unit": "%"}, {"measurement": "% Viable Cells Sensitivity", "setting": "SU-DHL-4; SU-DHL-4 cells, 5 days", "value": "Intermediate (intermediate sensitivity with 15% to 55% cell viability)"}, {"measurement": "Apoptosis AUC", "setting": "SU-DHL-4; SU-DHL-4 cells, 5 days", "value": 155.2}, {"measurement": "Apoptosis Sensitivity", "setting": "SU-DHL-4; SU-DHL-4 cells, 5 days", "value": "Intermediate"}, {"measurement": "EC50", "setting": "Pfeiffer; [4]", "value": 300, "unit": "nM"}, {"measurement": "Emax", "setting": "Pfeiffer; [4]", "value": 8.01, "unit": "%"}, {"measurement": "IC50", "setting": "Pfeiffer; Homo sapiens, Pfeiffer cells (Table 3)", "value": 855000, "unit": "nM"}, {"measurement": "% Viable Cells AUC", "setting": "Pfeiffer; Pfeiffer cells, 5 days", "value": 912.3}, {"measurement": "% Viable Cells Emax", "setting": "Pfeiffer; Pfeiffer cells, 5 days", "value": 86.19, "unit": "%"}, {"measurement": "% Viable Cells Sensitivity", "setting": "Pfeiffer; Pfeiffer cells, 5 days", "value": "Limited"}, {"measurement": "Apoptosis AUC", "setting": "Pfeiffer; Pfeiffer cells, 5 days", "value": 133.5}, {"measurement": "Apoptosis Sensitivity", "setting": "Pfeiffer; Pfeiffer cells, 5 days", "value": "Limited"}, {"measurement": "EC50", "setting": "U2940; Homo sapiens, U-2940, 120 h", "value": 67.9, "unit": "nM"}, {"measurement": "Emax", "setting": "U2940; Homo sapiens, U-2940, 120 h", "value": 29, "unit": "%"}, {"measurement": "IC50", "setting": "U2940; Homo sapiens, U-2940, 120 h, read-out: % Viable Cells IC50", "value": 35, "unit": "nM"}, {"measurement": "% Viable Cells AUC", "setting": "U2940", "value": 289.1}, {"measurement": "% Viable Cells Emax", "setting": "U2940", "value": 29.24, "unit": "%"}, {"measurement": "% Viable Cells Sensitivity", "setting": "U2940", "value": "Intermediate (intermediate sensitivity with 15% to 55% cell viability)"}, {"measurement": "Apoptosis AUC", "setting": "U2940", "value": 267.4}, {"measurement": "Apoptosis Sensitivity", "setting": "U2940", "value": "Intermediate"}, {"measurement": "% Viable Cells AUC", "setting": "HT; HT cells, 5 days", "value": 434.8}, {"measurement": "% Viable Cells Emax", "setting": "HT; HT cells, 5 days", "value": 45.18, "unit": "%"}, {"measurement": "% Viable Cells Sensitivity", "setting": "HT; HT cells, 5 days", "value": "Intermediate (intermediate sensitivity with 15% to 55% cell viability)"}, {"measurement": "Apoptosis AUC", "setting": "HT; HT cells, 5 days", "value": 158.2}, {"measurement": "Apoptosis Sensitivity", "setting": "HT; HT cells, 5 days", "value": "Intermediate"}, {"measurement": "EC50", "setting": "HT; [5]", "value": 7.82, "unit": "nM"}, {"measurement": "Emax", "setting": "HT; [5]", "value": 16.6, "unit": "%"}, {"measurement": "IC50", "setting": "HT; Homo sapiens, 120 h, HT cells, 5 days, read-out: % Viable Cells IC50", "value": 470, "unit": "nM"}, {"measurement": "IC50", "setting": "HT; Homo sapiens, HT cells (Table 3), read-out: IC50", "value": 435000, "unit": "nM"}]}
